This is an account of results in US20110118274A1, “PROTEASOME INHIBITORS AND THEIR USE IN TREATING PATHOGEN INFECTION AND CANCER” (CORNELL RESEARCH FOUNDATION, INC., priority 2007, published 2011).

The test system of the experiment is Mtb PrcAB-OG. Nature of the experiment: biochemical. The class given is biochemical, Mycobacterium tuberculosis.

`CSc1sc(C)cc1-c1nsc(=O)o1` [GL5] returned a Selectivity of 63.8.
